Paper PMC2584942, “Phase I dose escalation study of telatinib (BAY 57-9352) in patients with advanced solid tumours” (British Journal of Cancer, 2008)

How the values were obtained:
[1] = tested on: cytochrome P450 (CYP) isoforms; parameters: method as in printed; conditions: background statement, ref not given, cited from earlier work
VEGFR-2 = tested on: VEGFR-2; parameters: method as in printed; conditions: biochemical assay; background statement, ref not given; cited from earlier work
[2] = tested on: human aortic smooth muscle cells; parameters: method as in printed; conditions: background statement, ref not given; cited from earlier work
[3] = tested on: refractory advanced solid tumours; assay: Tumour response according to RECIST; format: in vivo, human; conditions: number of patients
Procedure: History, physical examinations, haematological and biochemical laboratory evaluations were performed at screening, on days 1, 7 and 14 of cycle 1 and on day 1 of subsequent cycles. Baseline objective tumour measurements were performed within 4 weeks prior to study treatment. Lesions at all disease sites were categorised as either measurable or nonmeasurable. Indicator lesions were selected and monitored throughout the study by the same assessor and using the same technique. Tumour response was evaluated according to the RECIST ([Therasse et al, 2000]).

[4] = tested on: human umbilical vein endothelial cells; parameters: method as in printed; conditions: human umbilical vein endothelial cells in vitro; background statement, ref not given; cited from earlier work
[5] = primary tumour site Colorectal, N=25
[6] = primary tumour site Other, N=17
[7] = primary tumour site Pancreatic, N=4

With CNC(=O)c1cc(COc2nnc(Nc3ccc(Cl)cc3)c3ccoc23)ccn1 [telatinib] as the molecule, how does the “main target of metabolic degradation” value [1] read?
The value was “N-methyl group”.

And the “risk of drug–drug interactions” value ([1]; human microsomes, hepatocytes or single CYP isoforms)?
The value was “no or only a very low risk of drug–drug interactions”.

And the “biotransformation by CYP isoforms” value ([1]; in vitro)?
Its value is “metabolised by various CYP isoforms”.

And the “VEGFR-2 tyrosine kinase activity” value (VEGFR-2)?
The value was “potent inhibitor”.

What about the PDGF-stimulated growth [2] of the same molecule?
Its PDGF-stimulated growth is “inhibited”.

And the “Best response NA (not assessable for response)” value ([3]; Total, N=71)?
The value was 1.

And the “Best response PD clin (RECIST)” value ([3]; Total, N=71)?
Its value is 9.

What about the “Best response PD meas (RECIST)” value ([3]; Total, N=71) of the same molecule?
Its value is 14.

What about the “Best response PR (RECIST)” value ([3]; Total, N=71) of the same molecule?
The value was 2.

What about the “Best response SD (RECIST)” value ([3]; Total, N=71) of the same molecule?
Its value is 42.

And the “Stabilisation (months) <6” value ([3]; Total, N=71)?
Its value is 62.

What about the “Stabilisation (months) >6” value ([3]; Total, N=71) of the same molecule?
Its value is 5.

And the “Stabilisation (months) >12” value ([3]; Total, N=71)?
The value was 3.

What about the “Best response PD clin (RECIST)” value [3, 5] of the same molecule?
The value was 1.

And the “Best response PD meas (RECIST)” value [3, 5]?
Its value is 6.

And the “Best response SD (RECIST)” value [3, 5]?
Its value is 17.

What about the “Stabilisation (months) <6” value [3, 5] of the same molecule?
Its value is 23.

What about the “Stabilisation (months) >6” value [3, 5] of the same molecule?
The value was 1.

What about the “Stabilisation (months) >12” value [3, 5] of the same molecule?
Its value is 1.

What about the “Best response PD clin (RECIST)” value ([3]; primary tumour site HCC, N=9) of the same molecule?
The value was 4.

And the “Best response SD (RECIST)” value ([3]; primary tumour site HCC, N=9)?
Its value is 5.

What about the “Stabilisation (months) <6” value ([3]; primary tumour site HCC, N=9) of the same molecule?
Its value is 8.

And the “Stabilisation (months) >6” value ([3]; primary tumour site HCC, N=9)?
Its value is 1.

What about the “Best response PD meas (RECIST)” value ([3]; primary tumour site NSCLC, N=4) of the same molecule?
The value was 1.

What about the “Best response SD (RECIST)” value ([3]; primary tumour site NSCLC, N=4) of the same molecule?
The value was 3.

And the “Stabilisation (months) <6” value ([3]; primary tumour site NSCLC, N=4)?
The value was 4.

And the “Best response NA (not assessable for response)” value [3, 6]?
The value was 1.

What about the “Best response PD clin (RECIST)” value [3, 6] of the same molecule?
Its value is 1.

What about the “Best response PD meas (RECIST)” value [3, 6] of the same molecule?
The value was 4.

And the “Best response SD (RECIST)” value [3, 6]?
The value was 10.

What about the “Stabilisation (months) <6” value [3, 6] of the same molecule?
Its value is 13.

And the “Stabilisation (months) >6” value [3, 6]?
The value was 3.

And the “Best response PD clin (RECIST)” value [3, 7]?
The value was 2.

What about the “Best response PD meas (RECIST)” value [3, 7] of the same molecule?
The value was 2.

And the “Stabilisation (months) <6” value [3, 7]?
Its value is 4.

And the “Best response PD clin (RECIST)” value ([3]; primary tumour site RCC, N=12)?
The value was 1.

What about the “Best response PD meas (RECIST)” value ([3]; primary tumour site RCC, N=12) of the same molecule?
The value was 1.

And the “Best response SD (RECIST)” value ([3]; primary tumour site RCC, N=12)?
The value was 7.

And the “Stabilisation (months) <6” value ([3]; primary tumour site RCC, N=12)?
The value was 10.

What about the “Stabilisation (months) >12” value ([3]; primary tumour site RCC, N=12) of the same molecule?
The value was 2.

And the VEGF-dependent proliferation [4]?
The VEGF-dependent proliferation was “inhibited”.
